# Test results taken from US12116353B1, “Crystalline chloro-n-(4-(morpholinomethyl)phenyl)benzamide and crystalline hydrochloride salt” (GEN1E LIFESCIENCES INC., priority 2024, dated 2024).
# Test: Equilibrium solubility in aqueous buffers
# Type: physicochemical
# Conditions: thermodynamic from solid, LC-MS/MS
# Description: The equilibrium solubility of crystalline compound (1) and crystalline compound (2) was measured in various aqueous buffers. The pH 4.0 and pH 5.0 buffers were prepared by combining 50 mL of 0.2 M potassium biphthalate with 150 mL of H2O, and then adjusting to pH 4.0 or pH 5.0 with 10 N HCl. The pH 6.0 buffer was prepared by combining 50 mL of 0.2 M KH2PO4 with 150 mL of H2O, and then adjusting to pH 6.0 with 10 N NaOH. The pH 7.4 buffer was prepared by combining 50 mL of 0.2 M KH2PO4 with 150 mL of H2O, and then adjusting to pH 7.4 with 10 N NaOH. At least 1 mg of powder for each compound was combined with 1 mL of each buffer to make a saturated mixture. The samples were shaken overnight on a Thermomixer® at room temperature. The samples were then passed through a […] PTFE syringe filter. The filtrate was sampled and diluted in duplicate as appropriate into a mixture of 1:1 buffer:acetonitrile (ACN) prior to analysis. All samples were assayed by LC-MS/MS using electrospray ionization against standards prepared in a mixture of 1:1 assay buffer:ACN. Standard concentrations ranged from 1.0 μM to 0.3 nM. The samples were analyzed by LCMS using a Waters Acuity® UPLC BEH Phenyl 30×2.1 mm, 1.7 μm liquid chromatography column and a PE Sciex® API 4000 mass spectrometer equipped with a Turbo Ionspray.
"solubility (aqueous potassium biphthalate buffer, aqueous buffer pH 4.0, shaken overnight at room temperature)","solubility (aqueous potassium biphthalate buffer, aqueous buffer pH 5.0, shaken overnight at room temperature)","solubility (aqueous potassium phosphate (KH2PO4) buffer, aqueous buffer pH 6.0, shaken overnight at room temperature)","solubility (aqueous potassium phosphate (KH2PO4) buffer, aqueous buffer pH 7.4, shaken overnight at room temperature)",Compound
12.5 mM,10.2 mM,8.17 mM,–,"Cl.O=C(Nc1ccc(CN2CCOCC2)cc1)c1ccc(Cl)cc1 [Crystalline Compound (1), 4-chloro-N-(4-(morpholinomethyl)phenyl)benzamide hydrochloride]"
–,–,–,0.0125 mM,"O=C(Nc1ccc(CN2CCOCC2)cc1)c1ccc(Cl)cc1 [Crystalline Compound (2), 4-chloro-N-(4-(morpholinomethyl)phenyl)benzamide]"
